Reference: patent US20240208965A1, “HETEROARYL ALKYLENE SUBSTITUTED 2-OXOQUINAZOLINE DERIVATIVES AS METHIONINE ADENOSYLTRANSFERASE 2A INHIBITORS” (IDEAYA BIOSCIENCES, INC., priority 2020, published 2024)
pIC50: −log10 of the molar value.

What was measured:
[1] = molecular target: T1, Human MAT2A (Homo sapiens, UniProt P31153); experiment: Phosphate Sensor Fluorescence Assay (Biologic Example A); type: biochemical; details: MAT2A inhibition, Biological Example A procedure (Compounds 1.001-1.028); 500 uM L-methionine, 500 uM ATP
T1 construct: Human MAT2A: Cepter, amino acids 1-395 Clone ID 334, lot 00023-148; purchased Cepter clone ID 334, lot 00023-148
Procedure: (§1) The ability of the compound of present disclosure to inhibit MAT2A enzyme was determined using a Phosphate Sensor Fluorescence Assay described below.
Biologic Example A. Phosphate Sensor Fluorescence Assay
(§2) MAT2A enzyme is incubated with a test compound in DMSO or DMSO and its substrates (L-methionine and ATP) in a microtiter plate. The enzymatic reaction is stopped by the addition of Working Phosphate Sensor Mixture. The plate is analyzed for fluorescence at 450 nm. The high control (DMSO with enzyme and its substrates) gives high fluorescence which represents no inhibition of enzymatic activity while the low control (DMSO with MAT2A substrates and no enzyme) gives low fluorescence which represents full inhibition of enzymatic activity.
(§3) • Human MAT2A: Cepter, amino acids 1-395 • Tris, pH 7.5: Invitrogen cat #15567-027 • KCl: Ambion cat #AM9640G • MgCl2: Ambion cat #AM9530G • Brij-35: Sigma cat B4184-10ML • DTT: Goldbio cat #DTT100 • BGG: Sigma cat #G5009-25G • PNP: Novus Biologicals cat #NBP1-50872 • 7-MEG: Cayman Chemical cat #15988 • L-Methionine: Alfa Aesar cat #J61904 • ATP: Alfa Aesar cat #J60336 • Phosphate Sensor: Thermo Fisher cat #PV4407 • EDTA: Life Tech cat #15575-038 • Assay plate: 384-well black polypropylene plate: Thomas Scientific cat #1149Q35
• Assay Buffer: 50 mM Tris, pH 7.5/50 mM KCl/10 mM MgCl2/0.01% Brij-35/1 mM DTT/0.1% BGG/40 nM PNP/6 uM 7-MEG • MAT2A: 10 nM for Cepter clone ID 329, lot 00023-123 before the addition of Working Phosphate Sensor Mixture • 5 nM for Cepter clone ID 334, lot 00023-148 before the addition of Working Phosphate Sensor Mixture • L-methionine: 500 uM before the addition of Working Phosphate Sensor Mixture • ATP: 500 uM before the addition of Working Phosphate Sensor Mixture
(§4) For the assay, a mixture of 1 mM L-methionine/1 mM ATP (2× final pre-stopped concentration) in assay buffer; MAT2A (2× final pre-stopped concentration) in Assay Buffer and Working Phosphate Sensor Mixture (1.5 uM Phosphate Sensor/30 mM EDTA in Assay Buffer, which is 3× final concentrations) were prepared. Test compounds or DMSO were added to the appropriate well suing D300e digital dispenser. 5 μl/well of Assay Buffer was added to the wells corresponding to the negative control and 5 μl/well of MAT2A was added to all the wells except for those corresponding to the negative control. After incubating the plate at room temperature for 15 minutes, 5 μl/well of the 1 mM L-methionine/1 mM ATP mixture was added to all wells. The plate was centrifuged at 1000 rpm for 1 minute and then incubated at room temperature for 1 hour. 5 μl of the Working Phosphate Sensor Mixture was added to all wells and the plate was centrifuged at 1000 rpm for 1 minute. The plate was read for fluorescence at 450 nm after exciting at 430 nm.
(§5) Percent inhibition was calculated in Chemical and Biological Information System (CBIS), (ChemInnovation Software Inc.). Curves were fitted by CBIS as % inhibition vs. log [compound concentration] using a 4-parameter inhibition model.
(§6) Fit=(A+((B−A)/(1+((C/x)^D))))
(§7) Compounds 1.001-1.028 were tested using the procedure described in Bioogical Example A, described above. Compounds 1.029-1.070 were tested using the procedure described in Biological Example B, described above.

[2] = molecular target: T1, Human MAT2A; experiment: Phosphate Sensor Fluorescence Assay (Biologic Example B); type: biochemical; details: MAT2A inhibition, Biological Example B procedure (Compounds 1.029-1.070); 5.8 nM MAT2A, 500 uM L-methionine, 500 uM ATP
Procedure: as §1
Biologic Example B. Phosphate Sensor Fluorescence Assay
as §2
as §3, with “1-395 Clone ID 334, lot 00023-148” for “1-395”, “JTBaker P/N 2085-05” for “Alfa Aesar cat #J61904”, “Promega P/N V915B” for “Alfa Aesar cat #J60336”, “Invitrogen” for “Thermo Fisher”, “Corning P/N 3573” for “Thomas Scientific cat #1149Q35”
• Assay Buffer: 50 mM Tris, pH 7.5/50 mM KCl/10 mM MgCl2/0.01% Brij-35/1 mM DTT/0.01% BGG/40 nM PNP/6 uM 7-MEG • MAT2A: 5.8 nM MAT2A (1-395), Cepter, clone ID 334, lot 00023-148 before the addition of Working Phosphate Sensor Mixture • L-methionine: 500 uM before the addition of Working Phosphate Sensor Mixture • ATP: 500 uM before the addition of Working Phosphate Sensor Mixture
as §4, with “using a Beckman Coulter Echo 550 acoustic liquid handler. 10 μL/well” for “suing D300e digital dispenser. 5 μl/well”, “10 μL/well” for “5 μl/well”, “10 μL” for “5 μl”, “nm on a Tecan Spark microplate reader.” for “nm.”
as §5, §6, §7

T1 sequence (P31153 whole entry, the tested form may be a part): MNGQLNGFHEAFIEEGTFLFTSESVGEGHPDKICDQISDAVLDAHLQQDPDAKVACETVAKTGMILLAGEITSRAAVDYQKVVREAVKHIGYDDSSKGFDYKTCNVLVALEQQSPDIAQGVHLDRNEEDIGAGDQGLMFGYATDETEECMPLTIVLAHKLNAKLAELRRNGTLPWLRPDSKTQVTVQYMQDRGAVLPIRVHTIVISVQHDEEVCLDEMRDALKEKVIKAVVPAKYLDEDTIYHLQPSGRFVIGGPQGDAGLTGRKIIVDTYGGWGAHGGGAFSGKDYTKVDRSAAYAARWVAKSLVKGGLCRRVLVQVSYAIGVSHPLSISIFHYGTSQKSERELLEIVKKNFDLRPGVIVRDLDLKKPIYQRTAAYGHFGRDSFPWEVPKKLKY

Row | SMILES | pIC50 [1] | pIC50 [2]
1 | C[C@@H](c1c[nH]cn1)n1c(=O)nc(N2CCCC2)c2ccc(C(F)(F)F)cc21 (single isomer, unassigned) [1.024] | 6.70 to 8.00 | 
2 | CC(c1c[nH]cn1)n1c(=O)nc(N2CC[C@H](O)C2)c2ccc(C(F)(F)F)cc21 (mixture of isomers) [1.019, 1-(1-(1H-imidazol-4-yl)ethyl)-4-((S)-3-hydroxypyrrolidin-1-yl)-7-(trifluoromethyl)quinazolin-2(1H)-one] | 6.30 to 6.70 | 
3 | CC(c1c[nH]cn1)n1c(=O)nc(N2CC[C@H](CO)C2)c2ccc(C(F)(F)F)cc21 (stereo partly drawn) [1.011, 1-(1-(1H-imidazol-4-yl)ethyl)-4-((S)-3-(hydroxymethyl)pyrrolidin-1-yl)-7-(trifluoromethyl)quinazolin-2(1H)-one] | 6.70 to 8.00 | 
4 | CO[C@H]1CCN(c2nc(=O)n([C@@H](C)c3c[nH]cn3)c3cc(C(F)(F)F)ccc23)C1 (single isomer, unassigned) [1.022] | 5.00 to 6.00 | 
5 | CNc1nc(=O)n(Cc2c[nH]cn2)c2cc(Cl)ccc12 [1.001, 1-((1H-imidazol-4-yl)methyl)-7-chloro-4-(methylamino)quinazolin-2(1H)-one] | 6.70 to 8.00 | 
6 | CO[C@H]1CCN(c2nc(=O)n([C@H](C)c3c[nH]cn3)c3cc(C(F)(F)F)ccc23)C1 (single isomer, unassigned) [1.021] | 6.30 to 6.70 | 
7 | C[C@H](c1c[nH]cn1)n1c(=O)nc(N2CCCC2)c2ccc(C(F)(F)F)cc21 (single isomer, unassigned) [1.023] | 6.70 to 8.00 | 
8 | CO[C@@H]1CCN(c2nc(=O)n([C@H](C)c3c[nH]cn3)c3cc(C(F)(F)F)ccc23)C1 (single isomer, unassigned) [1.025] | 6.70 to 8.00 | 
9 | C[C@@H](c1c[nH]cn1)n1c(=O)nc(N2CC[C@@H](O)C2)c2ccc(C(F)(F)F)cc21 (single isomer, unassigned) [1.014] | 6.70 to 8.00 | 
10 | CNc1nc(=O)n(Cc2c[nH]c(C(F)(F)F)n2)c2cc(C(F)(F)F)ccc12 [1.010, 4-(methylamino)-7-(trifluoromethyl)-1-((2-(trifluoromethyl)-1H-imidazol-4-yl)methyl)quinazolin-2(1H)-one] | 5.00 to 6.00 | 
11 | CNc1nc(=O)n(Cc2c[nH]nn2)c2cc(C(F)(F)F)ccc12 [1.005, 1-((1H-1,2,3-triazol-4-yl)methyl)-4-(methylamino)-7-(trifluoromethyl)quinazolin-2(1H)-one] | 5.00 to 6.00 | 
12 | C[C@H](c1c[nH]cn1)n1c(=O)nc(N2CC[C@@H](O)C2)c2ccc(C(F)(F)F)cc21 (single isomer, unassigned) [1.013] | 6.70 to 8.00 | 
13 | C[C@@H](c1cc[nH]n1)n1c(=O)nc(N)c2ccc(Cl)cc21 (single isomer, unassigned) [1.070] |  | 6.30 to 6.70

Results, then the molecule that gave them:

Row | pIC50 [1] | pIC50 [2] | SMILES
14 | 6.70 to 8.00 |  | CNc1nc(=O)n(C(C)c2c[nH]cn2)c2cc(C(F)(F)F)ccc12 (racemic) [1.007, 1-(1-(1H-imidazol-4-yl)ethyl)-4-(methylamino)-7-(trifluoromethyl)quinazolin-2(1H)-one]
15 | 6.00 to 6.30 |  | CNc1nc(=O)n([C@H](C)c2cscn2)c2cc(C(F)(F)F)ccc12 [1.002, (R)-4-(methylamino)-1-(1-(thiazol-4-yl)ethyl)-7-(trifluoromethyl)quinazolin-2(1H)-one]
16 | 6.70 to 8.00 |  | CNc1nc(=O)n([C@H](C)c2c[nH]cn2)c2cc(C(F)(F)F)ccc12 (single isomer, unassigned) [1.008]
17 | 6.70 to 8.00 |  | CC(c1c[nH]cn1)n1c(=O)nc(N(C)C)c2ccc(C(F)(F)F)cc21 (stereo not shown) [1.015, 1-(1-(1H-imidazol-4-yl)ethyl)-4-(dimethylamino)-7-(trifluoromethyl)quinazolin-2(1H)-one]
18 | 6.70 to 8.00 |  | C[C@H](c1c[nH]cn1)n1c(=O)nc(N(C)C)c2ccc(C(F)(F)F)cc21 (single isomer, unassigned) [1.016]
19 | 6.30 to 6.70 |  | CO[C@@H]1CCN(c2nc(=O)n([C@@H](C)c3c[nH]cn3)c3cc(C(F)(F)F)ccc23)C1 (single isomer, unassigned) [1.026]
20 | 6.70 to 8.00 |  | CC(c1c[nH]cn1)n1c(=O)nc(N)c2ccc(C(F)(F)F)cc21 (stereo not shown) [1.018, 1-(1-(1H-imidazol-4-yl)ethyl)-4-amino-7-(trifluoromethyl)quinazolin-2(1H)-one]
21 | 6.70 to 8.00 |  | CNc1nc(=O)n(Cc2c[nH]cn2)c2cc(C(F)(F)F)ccc12 [1.003, 1-((1H-imidazol-4-yl)methyl)-4-(methylamino)-7-(trifluoromethyl)quinazolin-2(1H)-one]
22 | 6.30 to 6.70 |  | CC(c1c[nH]cn1)n1c(=O)nc(N2CC[C@@H](CO)C2)c2ccc(C(F)(F)F)cc21 (mixture of isomers) [1.020, 1-(1-(1H-imidazol-4-yl)ethyl)-4-((R)-3-(hydroxymethyl)pyrrolidin-1-yl)-7-(trifluoromethyl)quinazolin-2(1H)-one]
23 | 6.70 to 8.00 |  | C[C@@H](c1c[nH]cn1)n1c(=O)nc(N2CCC2)c2ccc(C(F)(F)F)cc21 (single isomer, unassigned) [1.028]
24 | 6.70 to 8.00 |  | C[C@@H](c1c[nH]cn1)n1c(=O)nc(N(C)C)c2ccc(C(F)(F)F)cc21 (single isomer, unassigned) [1.017]
25 |  | 6.70 to 8.00 | CC(C)N(C)c1nc(=O)n([C@@H](C)c2cnc[nH]2)c2cc(C(F)(F)F)ccc12 (single isomer, unassigned) [1.037]
26 |  | 5.00 to 6.00 | Cc1nc[nH]c1Cn1c(=O)nc(N(C)C)c2ccc(C(F)(F)F)cc21 [1.050, 4-(Dimethylamino)-1-((4-methyl-1H-imidazol-5-yl)methyl)-7-(trifluoromethyl)quinazolin-2(1H)-one]
27 |  | > 8.00 | C[C@@H](c1cnc[nH]1)n1c(=O)nc(N(C)C)c2ccc(Br)cc21 (single isomer, unassigned) [1.044]
28 |  | 6.30 to 6.70 | CCC(c1cnc[nH]1)n1c(=O)nc(N(C)C)c2ccc(C(F)(F)F)cc21 (stereo not shown) [1.033, 1-(1-(1H-imidazol-5-yl)propyl)-4-(dimethylamino)-7-(trifluoromethyl)quinazolin-2(1H)-one]
